According to patent publication US11242344B2, “(4-hydroxypyrrolidin-2-yl)-heterocyclic compounds and methods of use thereof” (Genentech, Inc., priority 2017, dated 2022):

Legend:
BRD4 = BRD4 (Homo sapiens (Human), UniProt O60885); assay: BRD4 degradation assay in EOL-1 cells, high content fluorescence imaging; assay type: cell-based; conditions: 4 hours; for DC50: BRD4 immunofluorescence, read-out: EOL-1 EC50
Procedure: PC3 (Steap-1) prostate cancer cells: PC3 (Steap-1) prostate cancer cells (PC3 cells overexpressing the surface protein Steap-1) were seeded on day 1 at a density of 200,000 cells/mL in 45 μl/well in cell plates in a 384 well Greiner/Perkin Elmer Cell Carrier TC Treated plate (part #6007430) in Assay Medium (RPMI, 10% FBS, 2 mM Glutamax). Cells were incubated overnight at 37° C. degrees. On day 2, compounds were serially diluted 3-fold in DMSO spanning the concentrations 10 mM to 8.6 nM, in 384 well clear polypropylene plates (Greiner Cat #781201). DMSO and 10 mM of a control PROTAC (dBET1, as described in WO 2017/024317, p. 235, structure below) (control compound) were added to designated wells. Compounds and controls were diluted 50-fold (2 μl of DMSO stock into 98 μl) into Assay Medium. 5 μl of the diluted compounds was transferred to the cell plates. The final top concentration of the test compounds in the cell plates was 20 μM. Cell plates were incubated at 37° C., for 4 hours. Fixation and permeabilization were carried out using a Biotek EL406 plate washer and dispenser as follows. Cells were fixed by addition of 15 μL of 16% paraformaldehyde (Electron Microscopy Sciences #15710-S) directly to the 50 μL cell culture medium in each well using the peristaltic pump 5 μL cassette on a Biotek EL406 (final concentration of formaldehyde was 3.7% w/v). Samples were incubated 30 minutes. Well contents were aspirated and 50 μL/well of Phosphate Buffered Saline (PBS) containing 0.5% w/v bovine serum albumen, 0.5% v/v Triton X-100 (Antibody Dilution Buffer) was added to each well. Samples were incubated for 30 minutes. Well contents were aspirated and washed 3 times with 100 μL/well of PBS.
EOL-1 cells: The BRD4 degradation assay was performed on EOL-1 cells using the same procedure as described above for PC3 (Steap-1) prostate cancer cells, except EOL-1 cells were seeded at 1,000,000 cells/mL. Following aspiration and washing of the well contents with 100 μL/well of PBS, 40 μL PBS plus 10% normal goat serum was added per well for 20 minutes at room temperature.
For both the PC3 and EOL-1 cell assays, immunofluorescence staining of BRD4 was carried out using a Biotek EL406 plate washer and dispenser as follows. The well supernatant was aspirated from the wells and 25 μL/well of rabbit mAb Anti-BRD4 [EPR5150(2)] abeam 128874 diluted 1:500 in Antibody Dilution Buffer is dispensed. Samples were incubated for 2 hours at room temperature. Samples were washed 4 times with 100 μL/well of PBS. 25 μL/well of secondary antibody solution (Goat Anti-Rabbit IgG, DyLight 488 Conjugated Highly Cross-adsorbed #35553 1:1000) diluted 1:1000 and Hoechst 33342 1 μg/ml diluted in Antibody Dilution Buffer) were dispensed into each well. 16 wells of the plate, which were designated as ‘no primary antibody” wells, received only Antibody Dilution Buffer (without anti-BRD4 antibody). Samples were incubated for 2 hours at room temperature. Samples were washed 3 times with 100 μL/well of PBS using a Biotek EL406. Quantitative fluorescence imaging of BRD4 was carried out using a Phenix (Perkin Elmer). Fluorescence images of the samples (Channel 1: Hoechst33342 (DNA stain); Channel 2: 488 nm (BRD4 stain)) were acquired. Channel 1 (DNA stain) was used to define the “Region of Interest” (ROI) nuclear region. Measurements of BRD4 average immunofluorescence intensity within the ROI (nuclear region), were made on a per cell basis and averaged over all the measured cells. Data analysis was carried out using Genedata Screener Software, with DMSO and “no primary antibody” samples being used to define the 0% and 100% changes in BRD4. The “Robust Fit” method was used to define the inflexion point of curve (EC50) and the plateau of the maximal effect (Sinf). The Sinf value reports degradation as percent change in protein level, so complete loss of the protein target is −100%. […]

VHL Elongin B/C complex = VHL Elongin B/C complex (Homo sapiens (Human), UniProt P40337); assay: Fluorescence Polarization (FP) VHL Binding Assay; conditions: VHL binding, FP assay; geometric mean where more than one measurement
Chain of VHL Elongin B/C complex (P40337 whole entry, looked up): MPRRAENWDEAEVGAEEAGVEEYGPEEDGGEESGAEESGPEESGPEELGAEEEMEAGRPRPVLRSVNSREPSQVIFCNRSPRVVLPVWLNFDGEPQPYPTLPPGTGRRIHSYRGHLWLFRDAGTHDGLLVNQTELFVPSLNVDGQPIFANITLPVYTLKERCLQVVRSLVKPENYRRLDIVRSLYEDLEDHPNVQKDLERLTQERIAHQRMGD
Chain of VHL Elongin B/C complex (Q15370 whole entry partner, looked up): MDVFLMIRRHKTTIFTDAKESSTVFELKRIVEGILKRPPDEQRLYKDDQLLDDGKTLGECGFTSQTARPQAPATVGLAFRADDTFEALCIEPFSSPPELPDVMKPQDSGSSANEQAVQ
Chain of VHL Elongin B/C complex (Q15369 whole entry partner, looked up): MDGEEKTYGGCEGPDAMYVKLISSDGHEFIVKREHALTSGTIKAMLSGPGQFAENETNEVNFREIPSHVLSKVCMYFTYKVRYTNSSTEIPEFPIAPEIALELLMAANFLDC
In short: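 Readout is polarization of a TAMRA-coupled VHL ligand (1.67 nM final) displaced from the VHL(E55-D213)/Elongin B/C complex (2.64 nM final) after 1 h incubation at room temperature in pH 8.0 Tris buffer with 1% DMSO. Data normalized to no-VHL and compound-free controls, with compound fluorescence subtracted, and fitted by four-parameter curve for IC50.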

DC50 (BRD4)	IC50 (VHL Elongin B/C complex)	EOL-1 Sinf (%) (BRD4; maximum degradation, percent change in protein level (-100% = complete loss))	SMILES
> 20 µM	255 µM		Cc1ncsc1-c1ccc([C@]2(C)NC(C3C[C@@H](O)CN3C(=O)[C@@H](NC(=O)CCCCCCCCCCNC(=O)c3cc4c(cc3CS(C)(=O)=O)-c3cn(C)c(=O)c5[nH]cc(c35)CN4c3ncc(F)cc3F)C(C)(C)C)=NC2=O)cc1 (single isomer, unassigned) [Example 1005.1]
> 20 µM	> 100 µM		Cc1ncsc1-c1ccc([C@]2(C)NC(C3C[C@@H](O)CN3C(=O)C(c3cc(OCCCCCNC(=O)c4cc5c(cc4CS(C)(=O)=O)-c4cn(C)c(=O)c6[nH]cc(c46)CN5c4ncc(F)cc4F)no3)C(C)C)=NC2=O)cc1 (single isomer, unassigned) [Example 1001.3]
0.000865 µM	0.795 µM	−96.4%	Cc1ncsc1-c1ccc([C@]2(C)NC(C3C[C@@H](O)CN3C(=O)C(c3cc(OCCCCCNC(=O)c4cc5c(cc4CS(C)(=O)=O)-c4cn(C)c(=O)c6[nH]cc(c46)CN5c4ncc(F)cc4F)no3)C(C)C)=NC2=O)cc1 (single isomer, unassigned) [Example 1001.2]
> 20 µM	16.9 µM		Cc1ncsc1-c1ccc([C@]2(C)NC(C3C[C@@H](O)CN3C(=O)C(c3cc(OCCCCCNC(=O)c4cc5c(cc4CS(C)(=O)=O)-c4cn(C)c(=O)c6[nH]cc(c46)CN5c4ncc(F)cc4F)no3)C(C)C)=NC2=O)cc1 (single isomer, unassigned) [Example 1001.1]
